BindingDB's records for doi:10.1021/bi2002967 (University of Colorado Denver, 2011)

The compounds below were run against K562 (Homo sapiens) (assay: Cell assay using human leukemia cell line K562.).

IC50, > 10 µM:
Cc1c(COc2ccccc2)c2c(O)c(N=CCCN(C)C)cc(O)c2n1C [Indolequinone, compd 8]
Cc1c(COc2c(F)cc(F)cc2F)c2c(O)c(N=CCCN(C)C)cc(O)c2n1C [Indolequinone, compd 5]
Cc1c(COc2c(F)cc(F)cc2F)c2c(O)cc(N=CCCN(C)C)c(O)c2n1C [Indolequinone, compd 6]
Cc1c(COc2ccc([N+](=O)[O-])cc2)c2c(O)c(N=CCCCN)cc(O)c2n1C [Indolequinone, compd 1]
Cc1c(COc2c(F)cc(F)cc2F)c2c(O)c(N=CCCCN)cc(O)c2n1C [Indolequinone, compd 2]
Cc1c(COc2c(F)cc(F)cc2F)c2c(n1C)C(=O)C=C(N(C)CCCN(C)C)C2=O [Indolequinone, compd 7]
Cc1c(CO)c2c(O)c(N=CCCN(C)C)cc(O)c2n1C [Indolequinone, compd 9]
Cc1c(COc2c(F)cc(F)cc2F)c2c(O)c(N=CCCN)cc(O)c2n1C [Indolequinone, compd 4]
Cc1c(COc2c(F)cc(F)cc2F)c2c(O)cc(N=CCCCN)c(O)c2n1C [Indolequinone, compd 3]
